Pest or weed control data for eight compounds are collected here from patent US8735322B2, “Herbicides” (Syngenta Limited, priority 2008, dated 2014).

Assay type in all cases: in vivo
For experiment [1], the system named is Setaria faberi (SETFA). Briefly: Example A pre-emergence herbicidal activity, glasshouse pot test. To be noted: 480 h, rate 500 g/ha, evaluated 20 days later, 100=total damage to plant, 0=no damage to plant. The method, then:
(§1) Seeds of a variety of test species were sown in standard soil in pots. After cultivation for one day (pre-emergence) or after 10 days cultivation (post-emergence) under controlled conditions in a glasshouse, the plants were sprayed with an aqueous spray solution derived from the formulation of the technical active ingredient in 0.6 ml acetone and 45 ml formulation solution containing 10.6% Emulsogen EL (Registry number 61791-12-6), 42.2% N-methylpyrrolidone, 42.2% dipropylene glycol monomethyl ether (Registry number 34590-94-8) and 0.2% X-77 (Registry number 11097-66-8). The test plants were then grown in a greenhouse under optimum conditions until, 15 days later for post-emergence and 20 days for pre-emergence, the test was evaluated (100=total damage to plant; 0=no damage to plant). Alopecurus myosuroides (ALOMY), Avena fatua (AVEFA), Lolium perenne (LOLPE), Setaria faberi (SETFA), Digitaria sanguinalis (DIGSA), Echinochloa crus-galli (ECHCG) Pre-Emergence Activity

Experiment [2] concerns Alopecurus myosuroides (ALOMY). The experiment is described as above. To be noted: 480 h, rate 500 g/ha, evaluated 20 days later, 100=total damage to plant, 0=no damage to plant. The method, then: as §1
The subject of experiment [3] is Echinochloa crus-galli (ECHCG). The description is as above. To be noted: 480 h, rate 500 g/ha, evaluated 20 days later, 100=total damage to plant, 0=no damage to plant. The method, then:
as §1

The test system of experiment [4] is Avena fatua (AVEFA). The experiment is described as above. To be noted: 480 h, rate 500 g/ha, evaluated 20 days later, 100=total damage to plant, 0=no damage to plant. The method, then:
as §1

In experiment [5] the test system is Lolium perenne (LOLPE). Described as above. Particulars: 480 h, rate 500 g/ha, evaluated 20 days later, 100=total damage to plant, 0=no damage to plant. The method, then: as §1
Experiment [6] concerns Digitaria sanguinalis (DIGSA). Described as above. Particulars: 480 h, rate 500 g/ha, evaluated 20 days later, 100=total damage to plant, 0=no damage to plant. The method, then: as §1
Experiment [7] has as its system Setaria faberi (SETFA). Briefly: Example A post-emergence herbicidal activity, glasshouse pot test. Particulars: 360 h, evaluated 15 days after spraying, read-out: herbicidal damage SETFA (100=total damage to plant; 0=no damage to plant); for pest or weed control at 500 g/ha: rate 500 g/ha; for pest or weed control at 125 g/ha: rate 125 g/ha. The method, then:
as §1, with “Post Emergency” for “Pre-Emergence”

Experiment [8] has as its system Alopecurus myosuroides (ALOMY). The description is as above. To be noted: 360 h, evaluated 15 days after spraying, read-out: herbicidal damage ALOMY (100=total damage to plant; 0=no damage to plant); for pest or weed control at 500 g/ha: rate 500 g/ha; for pest or weed control at 125 g/ha: rate 125 g/ha. The method, then:
as §1, with “Post Emergency” for “Pre-Emergence”

The subject of experiment [9] is Echinochloa crus-galli (ECHCG). The description is as above. Particulars: 360 h, evaluated 15 days after spraying, read-out: herbicidal damage ECHCG (100=total damage to plant; 0=no damage to plant); for pest or weed control at 500 g/ha: rate 500 g/ha; for pest or weed control at 125 g/ha: rate 125 g/ha. The method, then: as §1, with “Post Emergency” for “Pre-Emergence”

In experiment [10] the test system is Avena fatua (AVEFA). The experiment is described as above. Particulars: 360 h, evaluated 15 days after spraying, read-out: herbicidal damage AVEFA (100=total damage to plant; 0=no damage to plant); for pest or weed control at 500 g/ha: rate 500 g/ha; for pest or weed control at 125 g/ha: rate 125 g/ha. The method, then:
as §1, with “Post Emergency” for “Pre-Emergence”

The test system of experiment [11] is Lolium perenne (LOLPE). The description is as above. Particulars: 360 h, evaluated 15 days after spraying, read-out: herbicidal damage LOLPE (100=total damage to plant; 0=no damage to plant); for pest or weed control at 500 g/ha: rate 500 g/ha; for pest or weed control at 125 g/ha: rate 125 g/ha. The method, then: as §1, with “Post Emergency” for “Pre-Emergence”

For experiment [12], the system named is Digitaria sanguinalis (DIGSA). Described as above. Particulars: 360 h, evaluated 15 days after spraying, read-out: herbicidal damage DIGSA (100=total damage to plant; 0=no damage to plant); for pest or weed control at 500 g/ha: rate 500 g/ha; for pest or weed control at 125 g/ha: rate 125 g/ha. The method, then:
as §1, with “Post Emergency” for “Pre-Emergence”

Regarding `Cc1cc(C)c(C2=C(O)CC(C(C)C3CCOCC3)CC2=O)c(C)c1` (stereo not drawn) [Compound A-10], the pest or weed control at 500 g/ha with Setaria faberi (SETFA) [1] stood at 60%; in [2], 50%; in [3], 80%; with Avena fatua (AVEFA) [4] it was 50%; in the experiment on Lolium perenne (LOLPE) [5], 70%; in experiment [6] it was 60%. Also, the pest or weed control at 500 g/ha with Setaria faberi (SETFA) [7] was 50%; in [8], 80%; in experiment [9], 50%; in the experiment with Avena fatua (AVEFA) [10] it was 80%; in the experiment on Lolium perenne (LOLPE) [11], 60%; in experiment [12], 70%.
Turning to `CCc1ccc(-c2ccc(Cl)cc2)cc1C1=C(O)CC(C(C)C2CCOCC2)CC1=O` (stereo not drawn) [Compound A-13], the pest or weed control at 500 g/ha with Setaria faberi (SETFA) [1] stood at 30%; in experiment [2], 30%; in experiment [3], 30%; in the experiment on Avena fatua (AVEFA) [4], 20%; with Lolium perenne (LOLPE) [5], 10%; in [6], 30%. Moreover, the pest or weed control at 500 g/ha worked out at 50% in the experiment on Setaria faberi (SETFA) [7]; 80% in experiment [8]; 100% in experiment [9]; 30% in the experiment with Avena fatua (AVEFA) [10]; 70% with Lolium perenne (LOLPE) [11]; 90% in [12].
Take `CCc1cc(C)cc(CC)c1C1=C(O)CC(CC2CCSCC2)CC1=O` (stereo not drawn) [Compound A-14]: the pest or weed control at 500 g/ha came out at 100% in the experiment on Setaria faberi (SETFA) [1]; 80% in experiment [2]; 80% in experiment [3]; 70% with Avena fatua (AVEFA) [4]; 90% in the experiment on Lolium perenne (LOLPE) [5]; 100% in experiment [6]. Moreover, the pest or weed control at 500 g/ha was found to be 100% with Setaria faberi (SETFA) [7]; 100% in experiment [8]; 100% in experiment [9]; 100% in the experiment with Avena fatua (AVEFA) [10]; 90% with Lolium perenne (LOLPE) [11]; 70% in experiment [12].
In the case of `Cc1ccc(-c2ccc(Cl)cc2)cc1C1=C(O)CC(C(C)C2CCOCC2)CC1=O` (stereo not drawn) [Compound A-15], the pest or weed control at 500 g/ha in the experiment on Setaria faberi (SETFA) [1] was 20%; in experiment [2], 10%; in experiment [3], 10%; in the experiment on Avena fatua (AVEFA) [4] it was 40%; with Lolium perenne (LOLPE) [5] it was 0%; in experiment [6] it was 20%. Further, the pest or weed control at 500 g/ha in the experiment with Setaria faberi (SETFA) [7] turned out to be 30%; in experiment [8], 60%; in experiment [9], 50%; in the experiment with Avena fatua (AVEFA) [10], 30%; with Lolium perenne (LOLPE) [11] it was 30%; in [12] it was 70%.
In the case of `CCc1cc(C)cc(CC)c1C1=C(O)CC(CC2CCS(=O)(=O)CC2)CC1=O` (stereo not drawn) [Compound A-17], the pest or weed control at 500 g/ha (in the experiment on Setaria faberi (SETFA) [1]; in experiment [2]; in experiment [3]; with Avena fatua (AVEFA) [4]; in the experiment on Lolium perenne (LOLPE) [5]; in experiment [6]) was 100% throughout. Further, the pest or weed control at 125 g/ha in the experiment with Setaria faberi (SETFA) [7] was 50%; in [8], 90%; in experiment [9] it was 100%; with Avena fatua (AVEFA) [10], 100%; in the experiment with Lolium perenne (LOLPE) [11], 90%; in experiment [12], 80%.
Turning to `CCc1cc(C)cc(CC)c1C1=C(O)CC(C(C)C2CCOC2)CC1=O` (stereo not drawn) [Compound A-18], the pest or weed control at 500 g/ha in the experiment on Setaria faberi (SETFA) [1] was 100%; in experiment [2], 90%; in experiment [3], 100%; in the experiment on Avena fatua (AVEFA) [4], 100%; with Lolium perenne (LOLPE) [5], 100%; in experiment [6], 100%. The pest or weed control at 125 g/ha with Setaria faberi (SETFA) [7] stood at 50%; in [8], 100%; in [9] it was 100%; in the experiment with Avena fatua (AVEFA) [10], 90%; in the experiment on Lolium perenne (LOLPE) [11], 100%; in experiment [12], 80%.
Take `CCc1cc(CC)c(C2=C(O)CC(CC3CCOCC3)CC2=O)c(CC)c1` (stereo not drawn) [Compound A-19]: the pest or weed control at 500 g/ha came out at 100% with Setaria faberi (SETFA) [1]; 100% in experiment [2]; 100% in [3]; 60% in the experiment with Avena fatua (AVEFA) [4]; 100% in the experiment on Lolium perenne (LOLPE) [5]; 100% in [6]. The pest or weed control at 125 g/ha in the experiment on Setaria faberi (SETFA) [7] was determined as 60%; in [8], 70%; in experiment [9] it was 70%; in the experiment on Avena fatua (AVEFA) [10], 20%; with Lolium perenne (LOLPE) [11], 70%; in experiment [12] it was 60%.
As for `CCc1ccc(-c2ccc(Cl)cc2)cc1C1=C(O)CC(CC2CCOCC2)CC1=O` (stereo not drawn) [Compound A-20], the pest or weed control at 500 g/ha in the experiment on Setaria faberi (SETFA) [1] is 70%; in experiment [2] it was 50%; in [3] it was 100%; in the experiment with Avena fatua (AVEFA) [4] it was 10%; in the experiment on Lolium perenne (LOLPE) [5], 40%; in [6] it was 40%. In addition, the pest or weed control at 125 g/ha came out at 80% with Setaria faberi (SETFA) [7]; 40% in experiment [8]; 100% in experiment [9]; 60% in the experiment on Avena fatua (AVEFA) [10]; 40% with Lolium perenne (LOLPE) [11]; 100% in experiment [12].
